Source: the NIST ThermoML archive (doi:10.1021/acs.jced.5b00662)

Experiment: xn = mol fraction of the nth substance listed
Conditions: 100 kPa, Liquid; for speed of sound: Sing-around technique in a fixed-path interferometer; for mass density: Vibrating tube method

OCCOCCO [diethylene glycol] + O
Conditions | mass density, x1 = 0.907 [kg/m3] | mass density, x1 = 0.9589 [kg/m3] | mass density, x1 = 0.9698 [kg/m3] | mass density, x1 = 0.99 [kg/m3] | mass density, x1 = 0.9901 [kg/m3] | speed of sound, x1 = 0.907 [m/s] | speed of sound, x1 = 0.9589 [m/s] | speed of sound, x1 = 0.9698 [m/s] | speed of sound, x1 = 0.99 [m/s] | speed of sound, x1 = 0.9901 [m/s]
283.15 K | 1123.13 | 1123.27 | 1123.27 | 1123.33 | 1123.33 | 1620.3 | 1617.8 | 1617.4 | 1616.4 | 1616.5
288.15 K | 1119.58 | 1119.71 | 1119.72 | 1119.77 | 1119.77 | 1608 | 1605.5 | 1605.2 | 1604.1 | 1604.2
293.15 K | 1116.02 | 1116.15 | 1116.16 | 1116.21 | 1116.21 | 1595.9 | 1593.3 | 1593 | 1591.9 | 1592
298.15 K | 1112.45 | 1112.59 | 1112.59 | 1112.65 | 1112.65 | 1583.8 | 1581 | 1580.8 | 1579.6 | 1579.8
303.15 K | 1108.88 | 1109.02 | 1109.03 | 1109.08 | 1109.08 | 1571.7 | 1569 | 1568.6 | 1567.5 | 1567.4
308.15 K | 1105.3 | 1105.43 | 1105.44 | 1105.5 | 1105.5 | 1559.6 | 1557 | 1556.6 | 1555.4 | 1555.4
313.15 K | 1101.69 | 1101.83 | 1101.84 | 1101.9 | 1101.9 | 1547.5 | 1545 | 1544.6 | 1543.4 | 1543.3
323.15 K | 1094.45 | 1094.6 | 1094.6 | 1094.67 | 1094.67 | 1523.4 | 1520.9 | 1520.5 | 1519.3 | 1519.2
333.15 K | 1087.12 | 1087.28 | 1087.29 | 1087.36 | 1087.36 | 1499 | 1496.6 | 1496.2 | 1495.1 | 1494.9
343.15 K | 1079.71 | 1079.88 | 1079.9 | 1079.97 | 1079.97 | 1474.6 | 1472.2 | 1471.8 | 1470.8 | 1470.5
